What was measured:
[1] = test system: Caco-2; experiment: Caco-2; assay type: in vitro ADME
Source text: (§1) Overt reactive oxygen species (ROSs) can be produced due to noise and certain ototoxic drugs that can damage the hair cells of the ear, resulting in either temporary or permanent hearing loss. Exposure to blast waves and continuous noise not only damaged the inner ear, but caused cell death in the hippocampus, suppressed neurogenesis and impaired memory function. Aging as well can manifest in mitochondrial dysfunction leading to hearing loss. It is emerging that attempts to treat hearing loss by targeting downstream issues is not very effective. In one embodiment, the compositions and methods of the invention relate to targeting oxidative stress upstream at the mitochondria that may be causative for many disorders. There have been a variety of attempts to lower cellular stress, such as administering anti-oxidants, however these drugs have limited tissue penetration into the brain and lower ROSs after they have been formed. […] While not being bound to theory, it is postulated that DNP modulates the mitochondrial membrane potential having a significant impact at preventing ROS formation in isolated mitochondria and in the treated wildtype mice. DNP treatment 3-hours post-ischemia reduced cerebral infarct volume 40% by protecting the penumbra or “threaten tissue” and could provide similar benefits after a blast to protect inner hair cells from eminent cell death. […]

[2] = test system: wildtype mice; experiment: Lifespan of chronically treated wildtype mice; assay type: in vivo; conditions: wildtype mice chronically treated with an extraordinarily low dose
Source text: as §1

[3] = test system: ion channels; experiment: Inhibition of ion channels
Source text: as §1

[4] = test system: EAE mouse model of Multiple Sclerosis; experiment: EAE MS model (clinical score, body weight); assay type: in vivo; conditions: for progression of paralysis monitored as Clinical Score: administered 7-days after induction of MOG35-55 myelin peptide; for weight loss / body weight changes: versus Placebo mice
Source text: FIG. 1 is a chart illustrating the comparative effect of two compounds of the invention at lowering or blocking progression of paralysis as monitored as a Clinical Score (EAE MS model comparing parent (2,4-DNP) to prodrug (II-38) at equivalent exposures of 5 mpk parent to […] prodrug for efficacy). Legend: diamond—placebo; square—2,4-DNP 5 mpk; triangle—II-38 8 mpk; x—II-38 16 mpk; asterisk—II-38 80 mpk. P values by Ordinal Regression: 2,4-DNP 5 mpk=0.0192; II-38 8 mpk=0.000954; II-38 16 mpk=0.000124; II-38 80 mpk=0.00014 (results from logistic regression model using ordinal package from cran project, www.cran.r-project.org).
Legend: diamond—placebo; square—2,4-DNP 5 mpk; triangle—II-38 8 mpk; x—II-38 16 mpk; asterisk—II-38 80 mpk. All doses significant to preserving body weight. P values by Ordinal Regression: 2,4-DNP 5 mpk=0.0188; II-38 8 mpk<0.0001; II-38 16 mpk=0.044; II-38 80 mpk<0.0001.
In one embodiment, the compositions and methods of the invention relate to a pharmacological intervention that abolishes overt ROS production and improves the quality of the mitochondrial population by mitophagy, induces Brain Derived Neurotrophin Factor (BDNF), increases cAMP, and/or remodels cellular expression. In one embodiment, a drug of the invention thus becomes “disease modifying.” In one embodiment, a prodrug of DNP (II-38) was administered to a mouse model of Multiple Sclerosis, called the EAE, 7-days after induction of the MOG35-55 myelin peptide. The ProDrug of DNP, II-38, was administered at multiples of exposure to 2,4-DNP or DNP. […] Even though DNP historically was used in the 1930's for weight loss at high doses, here it is shown that it can paradoxically be repositioned to prevent wasting associated with neurodegenerative/autoimmune diseases at low doses.

[5] = test system: CYP; experiment: Inhibition of CYP; assay type: in vitro ADME
Source text: as §1

[6] = 28-day toxicity studies; assay type: in vivo; conditions: low doses
Source text: as §1

[7] = test system: mouse model of Alzheimer's disease; experiment: Alzheimer's disease mouse model, Morris Water Maze; assay type: in vivo; conditions: chronic treatment
Source text: In one embodiment, the invention provides compositions and methods for treating neurodegenerative diseases such as Alzheimer's disease, Parkinson, and Huntington's disease. It is believed that the complete lack of historic success is due to most pharmaceutical industries focusing on a downstream event, such as plaques/tangles, whereas the issue is likely upstream at the mitochondria causing high cellular stress.

[8] = Stability in simulated gastric fluid (SGF), pH 1.2; assay type: in vitro ADME; conditions: pH 1.2, 37° C.
Description: GI: Stability in simulated gastric fluid (USP, 37° C.)
HPLC analysis was carried out on an Agilent 1200 Infinity Series Quatpump, equipped with a photodiode array detector and a computer integrating apparatus. An Inertsil ODS-3 column, C18, 5 μm, 4.6×50 mm (GL Science Inc. Japan) protected with a guard column: Alltima C18, 5 μm, 4.6×7.5 mm (Grace Discovery Sciences, IL, USA) was used as the stationary phase. An isocratic method with a mobile phase consisting of water/acetonitrile (70:30) containing 0.05% formic acid in each was used. A flow rate of 0.9 mL/min was used and detection was carried out at a UV wavelength of 250 nm.
To formulate 1 mg/mL of II-38 in SGF, 3.1 mg of II-38 was dissolved in 0.155 mL of DMSO (i.e. 5%) and added slowly and gradually to a total volume of 2.945 mL of preheated SGF (Table 3) in a cell diffusion chamber preheated to 37° C. The solution was mixed for 30 sec. every half an hour using magnetic stirrer. Samples of 20 μL (20 μg/mL of II-38) were collected at 0, 1, 2, 4, 6 and 8 h. Each sample was mixed with acetonitrile QS to 1 mL, vortex-mixed for 30 sec and centrifuged at 10,000 rpm at room temp. A volume of 10 μL of the supernatant was injected into the HPLC spectrometer.

SMILES | inhibition, Caco-2 [1] | lifespan [2] | inhibition to ion channels [3] | progression of paralysis monitored as Clinical Score [4] | weight loss / body weight changes [4] | inhibition to CYP [5] | Safety Index [6] [×] | toxicity [6] | short term memory in the Morris Water Maze [7] | stability in SGF [8]
O=[N+]([O-])c1ccc(O)c([N+](=O)[O-])c1 [2,4-DNP, 2,4-dinitrophenol] | no inhibition | living longer than untreated mice | no inhibition | striking effect at lowering or blocking progression of paralysis | preventing weight loss seen in the Placebo mice | no inhibition | ≥ 10 | not toxic | strikingly improved | 
O=C(Oc1ccc([N+](=O)[O-])cc1[N+](=O)[O-])N1CCOCC1 [II-38, 2,4-Dinitrophenyl morpholine-4-carboxylate] |  |  |  | striking effect at lowering or blocking progression of paralysis | preventing weight loss seen in the Placebo mice |  |  |  |  | stable
